Earlier results in patent publication EP3196312B1, “EFFICIENT CONVERSION OF METHYLGLYOXAL INTO HYDROXYACETONE USING NOVEL ENZYMES AND APPLI CATIONS THEREOF” (Metabolic Explorer, priority 2016, dated 2017).

Assays:
[1] = biological target: T1, Escherichia coli YqhD (alcohol dehydrogenase, Uniprot Q46856), wild type, SEQ ID NO: 7 (Escherichia coli, UniProt Q46856); details: toward methylglyoxal and NADPH; as cited from WO 2011/012697
T1 sequence (Q46856 1-387): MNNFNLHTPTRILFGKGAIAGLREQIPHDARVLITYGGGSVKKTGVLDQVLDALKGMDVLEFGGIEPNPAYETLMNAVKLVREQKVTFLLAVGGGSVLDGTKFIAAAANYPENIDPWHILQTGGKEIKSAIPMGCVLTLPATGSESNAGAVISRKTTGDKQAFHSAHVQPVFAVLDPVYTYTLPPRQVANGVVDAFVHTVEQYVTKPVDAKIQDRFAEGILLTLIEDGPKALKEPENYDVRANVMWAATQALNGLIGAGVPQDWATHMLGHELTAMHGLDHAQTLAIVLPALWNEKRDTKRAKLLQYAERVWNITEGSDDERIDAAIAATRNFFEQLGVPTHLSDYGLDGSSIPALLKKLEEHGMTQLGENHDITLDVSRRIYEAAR

[2] = biological target: T2, Escherichia coli YqhD variant YqhD*(G149E), SEQ ID NO: 9 (Escherichia coli, UniProt Q46856, G149E); details: toward methylglyoxal and NADPH; as cited from WO 2011/012697
T2 sequence (Q46856 1-387 G149E): T1 sequence (Q46856 1-387)

## CC(=O)C=O [methylglyoxal]
[1]
  Km: 2090 µM
[2]
  Km: 2920 µM
